In one data set the target is T1, hUBF (Homo sapiens, UniProt P17480).
T1 construct: made in house; host or cells: in vitro transcription and translation (cell-free) from plasmid pTbGUBF1
T1 sequence (P17480 1-764): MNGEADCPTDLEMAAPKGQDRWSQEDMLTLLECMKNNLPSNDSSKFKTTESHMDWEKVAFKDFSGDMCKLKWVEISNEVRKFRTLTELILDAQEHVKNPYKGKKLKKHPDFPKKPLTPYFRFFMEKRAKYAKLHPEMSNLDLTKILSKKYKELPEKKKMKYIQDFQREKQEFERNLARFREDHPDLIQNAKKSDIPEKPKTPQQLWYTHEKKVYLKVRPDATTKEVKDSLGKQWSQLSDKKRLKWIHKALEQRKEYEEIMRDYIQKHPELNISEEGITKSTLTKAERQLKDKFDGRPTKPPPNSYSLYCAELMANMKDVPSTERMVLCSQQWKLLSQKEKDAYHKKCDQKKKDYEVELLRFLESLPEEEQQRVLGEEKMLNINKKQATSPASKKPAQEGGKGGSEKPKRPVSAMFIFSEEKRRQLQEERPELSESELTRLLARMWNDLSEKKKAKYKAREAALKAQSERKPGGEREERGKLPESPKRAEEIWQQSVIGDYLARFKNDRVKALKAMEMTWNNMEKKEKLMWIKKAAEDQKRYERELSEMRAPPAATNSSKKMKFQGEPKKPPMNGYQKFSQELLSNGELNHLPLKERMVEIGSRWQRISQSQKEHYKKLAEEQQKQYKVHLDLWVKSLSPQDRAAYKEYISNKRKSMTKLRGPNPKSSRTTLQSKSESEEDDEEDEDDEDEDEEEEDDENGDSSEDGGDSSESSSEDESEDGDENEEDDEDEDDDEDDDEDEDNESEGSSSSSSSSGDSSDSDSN
Put plainly: Southwestern blotting of hUBF with platinated DNA probes. In kind it is binding. Particulars: southwestern and western blot; DNA globally modified by the platinum compound. As to the method:
Probe Preparation. The DNA probe used for southwestern blotting was a 422 base pair (bp) AvaI restriction fragment excised from M13mp19 replicative form DNA. Platinated probes were prepared by treating the AvaI-digested DNA with cisplatin or trans-DDP, and the formal bound drug/nucleotide ratios (rb) were determined by using atomic absorption spectroscopy as described in Donahue et al. (1990), 29 Biochemistry 5872-5880.
Western and Southwestern Blotting Technique. HeLa whole cell extracts (WCE) were prepared by the sonication procedure of Samson et al. (1986), 83 Proc. Natl. Acad. Sci. U.S.A. 5607-5610. The 97 kDa hUBF species was synthesized by in vitro transcription and translation from the plasmid pTbGUBF1 as reported in Jantzen et al. (1992), 6 Genes & Dev. 1950-1963. In vitro translated hUBF was quantitated by the incorporation of ^35S-methionine. Protein samples ([…] WCE or 8 ng hUBF) were resolved on 5-15% gradient SDS polyacrylamide gels and transferred to nitrocellulose membranes. Parallel blots of HeLa whole cell extracts (WCE) and in vitro translated hUBF (hUBF) were probed with various ^32P labeled DNA fragments (southwestern analysis, panels A-C of FIG. 2) or antiserum against hUBF (Anti-NOR-90) (panel D of FIG. 2). For southwestern analysis, the air dried membranes were processed as reported in Toney et al. (1989), 86 Proc. Natl. Acad. Sci. U.S.A. 8328-8332. […]
On the technique in general: In western blotting, separated proteins are transferred to a membrane and probed.

Data set [1] relates to HeLa 36 (ER+) and HeLa 7 (ER-) cells. Put plainly: Methylene blue dye binding toxicity assay in HeLa ER transformants.
Data set [2] has as its target T2, estrogen receptor (ER) (Bos taurus, UniProt P49884).
T2 construct: uterine cytosol was prepared by homogenizing calf uteri; from tissue; host or cells: calf uterus, cytosol (105,000 g supernatant)
T2 sequence (P49884 1-596): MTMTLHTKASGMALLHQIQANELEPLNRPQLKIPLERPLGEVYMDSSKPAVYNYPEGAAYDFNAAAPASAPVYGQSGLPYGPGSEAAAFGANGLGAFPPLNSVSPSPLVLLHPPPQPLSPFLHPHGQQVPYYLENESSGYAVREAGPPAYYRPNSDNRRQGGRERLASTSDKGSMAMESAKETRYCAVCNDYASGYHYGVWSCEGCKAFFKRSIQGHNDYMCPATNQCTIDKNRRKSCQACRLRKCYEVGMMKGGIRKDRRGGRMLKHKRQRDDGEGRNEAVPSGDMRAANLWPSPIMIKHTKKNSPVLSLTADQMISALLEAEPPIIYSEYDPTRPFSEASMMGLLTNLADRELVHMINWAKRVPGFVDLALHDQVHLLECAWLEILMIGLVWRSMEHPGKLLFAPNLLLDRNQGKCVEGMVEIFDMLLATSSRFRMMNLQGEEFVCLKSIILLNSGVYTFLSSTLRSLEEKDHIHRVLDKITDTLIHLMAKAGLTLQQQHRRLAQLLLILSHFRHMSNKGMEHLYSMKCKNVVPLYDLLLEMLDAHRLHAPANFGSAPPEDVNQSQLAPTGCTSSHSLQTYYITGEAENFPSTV
In kind it is binding, calf.

Data set [3] concerns MCF-7 and MDA-MB-231 cells. Put plainly: Methylene blue dye binding growth assay in breast tumor cell lines. Format: cell-based, human. Conditions: ED50 = concentration that inhibits cell growth by 50%. As to the method: The toxicities of the preferred 2-phenylindole-C6NC2-mustard and homologous ligand decoy compounds for selected cells distinguished phenotypically from nonselected cells by expression of ER were tested using the human breast tumor cell lines, MCF-7 and MDA-MB-231, according to the guidelines set forth in Example 10 (above). The MCF-7 cell line expresses the estrogen receptor protein, while no ER protein can be detected in the MDA-MB-231 cell line.
Both cell lines were routinely cultured in Minimal Essential Medium (MEM) supplemented with 2 mM gluatamine, 1 mM sodium pyruvate and 10% fetal calf serum. To determine the toxicity of test compounds, cells were trypsinized and plated in 100 μl of media in 96-well microtiter plates at the following densities: MCF-7, 2000 cells/well; MDA-MB-231, 1000 cells/well. Cells were allowed to grow for 24 hours in the 96-well plates prior to treatment with the compounds. […]
Each treatment condition was conducted in replicates of 8 wells. […] On day 4, cell growth in treated and control cultures was determined using the methylene blue dye binding assay.
A dye-binding assay as described by Finlay et al. (1984), 139 Anal. Biochem. 272 was used to assess the cytotoxic effects of 2-phenylindole-C6NC2-mustard and homologous ligand decoy compounds. […] The absorbance of the solubilized dye was read at 620 nm in a Ceres 9000 plate reader (Biotek).

The target in data set [4] is T2, estrogen receptor (ER). Description: In vitro [3H]E2 competition assay, calf uterine extracts, free compounds. Format: binding. Conditions: free compound.
Procedure: Assays were performed by premixing a range of concentrations of the test compound with a fixed amount of tritium labeled estradiol ([^3H]E2). Calf uterine cytosol was then added. After incubation overnight at 4° C., activated charcoal/dextran was added to remove unbound [^3H]E2. Following centrifugation to remove the charcoal/dextran, levels of bound (i.e., non-competed) [^3H]E2 were determined by liquid scintillation spectrometry. Low concentrations of test compound required to abolish [^3H]E2 binding in this assay indicate a tight association between the test compound and the ER.

Where two headings read alike, the source gives them in different places. Bounds are passed on as bounds.

In the case of `N.N.[Cl][Pt][Cl]` [cisplatin, cis-diamminedichloro-platinum(II)], the “binding of in vitro translated hUBF to drug-modified DNA” value at hUBF is on record as “bound”.

For `O=C(NCCCc1ccc(N(CCCl)CCCl)cc1)OCCNCCCCCCn1c(-c2ccc(O)cc2)cc2cc(O)ccc21` [2-phenylindole-C6NC2-mustard], in data set [1] (4 hr. exposure, 2.5 μM dose), the “differential in toxicity between HeLa 36 and HeLa 7” value was “approximately a two-fold differential”. Further, the “cytotoxicity in HeLa 36 cells relative to HeLa 7 cells” value in data set [1] (4 hr. exposure, 5 μM dose) is recorded as “four- to five-fold greater cytotoxicity”. The “effect in HeLa 36 cells relative to HeLa 7 cells” value in data set [1] (4 day exposure) was “selectively toxic and growth inhibitory effect”. Further, the “affinity of DNA lesions formed by the compound for ER” value at estrogen receptor (ER) [2] is “compete effectively”. Besides, the “ED50 in MCF-7 relative to ED50 in MDA-MB-231” value in data set [3] is “two- to three-fold lower”. The “affinity for the ER relative to estradiol (E2)” value on estrogen receptor (ER) [4] (calf uterine cytosol) is recorded as no more than 20 fold. The “affinity for the ER (in words)” value on estrogen receptor (ER) [4] (competition with [3H]E2) is on record as “highest affinity”.

For `O=C(O)CCCc1ccc(N(CCCl)CCCl)cc1` [chlorambucil, reference compound], the “affinity of DNA lesions formed by the compound for ER” value at estrogen receptor (ER) [2] (isolated DNA lesioned with compound, competition with E2) is given as “no affinity”.

Take `N.N.[Cl][Pt][Cl]` [trans-DDP, trans-Diamminedichloroplatinum (II)]: the “binding of in vitro translated hUBF to drug-modified DNA” value at hUBF is “failed to recognize”.
